Assay results published in ChEMBL document CHEMBL5104134, “Targeting the interaction of β-catenin and TCF/LEF transcription factors to inhibit oncogenic Wnt signaling” (Bioorg Med Chem, 2022).
Starred links: 1 amine or outer side, 2 acyl side, 3 side chain; linkers in the order of their positions; H or OH if unused. Positions of bridges follow the written chain, without caps; N, C: chain ends. Non-standard residues stand in square brackets, D forms with d. Residues, ends and D or L forms follow the SMILES beside them. X1 = C(=C\[*:2])/CC[*:1]; βAla = NCCC(=O)O

Legend:
[1] = Antiproliferative activity against human LNCaP-abl cells assessed as inhibition of cell proliferation incubated for 5 days by Cell Titer-Fluor assay; format: functional, cell-based; settings: 120 h
[2] = Antiproliferative activity against human LNCaP-95 cells assessed as inhibition of cell proliferation incubated for 5 days by Cell Titer-Fluor assay; format: functional, cell-based; settings: LNCaP-95, 120 h
[3] = Inhibition of Wnt reporter activity in human SW480 cells by cell based assay; format: functional
TCF4-CTNNB1 complex = biological target: T1, TCF4-CTNNB1 complex (Homo sapiens, UniProt P35222); test: Inhibition of His-tagged beta-catenin (134 to 668 residues)/CM-5 sensor chip immobilized N-terminal GST-tagged TCF4 interaction (unknown origin) preincubated with beta-catenin for 15 mins followed by TCF4 addition measured after 60 secs by SPR analysis; format: protein-complex assay
T1 sequence (P35222 whole entry): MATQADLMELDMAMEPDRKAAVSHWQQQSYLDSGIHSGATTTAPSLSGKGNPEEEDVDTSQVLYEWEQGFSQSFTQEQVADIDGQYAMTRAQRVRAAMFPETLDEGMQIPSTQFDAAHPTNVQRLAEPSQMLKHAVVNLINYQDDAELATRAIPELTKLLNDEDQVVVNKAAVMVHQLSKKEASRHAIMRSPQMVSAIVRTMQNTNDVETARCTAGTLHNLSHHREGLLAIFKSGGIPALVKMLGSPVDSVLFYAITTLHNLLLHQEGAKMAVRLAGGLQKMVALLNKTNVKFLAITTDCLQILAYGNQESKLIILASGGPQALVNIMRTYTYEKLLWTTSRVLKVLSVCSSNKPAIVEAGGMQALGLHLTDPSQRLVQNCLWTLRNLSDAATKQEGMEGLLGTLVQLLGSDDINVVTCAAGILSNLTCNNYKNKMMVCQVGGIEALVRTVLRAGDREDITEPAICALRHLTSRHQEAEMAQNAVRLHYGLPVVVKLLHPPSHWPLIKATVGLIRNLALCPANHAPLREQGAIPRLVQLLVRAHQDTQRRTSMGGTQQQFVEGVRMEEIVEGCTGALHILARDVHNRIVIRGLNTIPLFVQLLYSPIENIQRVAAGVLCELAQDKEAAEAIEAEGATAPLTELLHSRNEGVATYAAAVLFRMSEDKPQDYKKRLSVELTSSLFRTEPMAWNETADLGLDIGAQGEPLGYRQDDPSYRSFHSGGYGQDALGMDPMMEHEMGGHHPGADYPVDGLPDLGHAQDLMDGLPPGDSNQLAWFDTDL
T1 sequence (P15884 whole entry): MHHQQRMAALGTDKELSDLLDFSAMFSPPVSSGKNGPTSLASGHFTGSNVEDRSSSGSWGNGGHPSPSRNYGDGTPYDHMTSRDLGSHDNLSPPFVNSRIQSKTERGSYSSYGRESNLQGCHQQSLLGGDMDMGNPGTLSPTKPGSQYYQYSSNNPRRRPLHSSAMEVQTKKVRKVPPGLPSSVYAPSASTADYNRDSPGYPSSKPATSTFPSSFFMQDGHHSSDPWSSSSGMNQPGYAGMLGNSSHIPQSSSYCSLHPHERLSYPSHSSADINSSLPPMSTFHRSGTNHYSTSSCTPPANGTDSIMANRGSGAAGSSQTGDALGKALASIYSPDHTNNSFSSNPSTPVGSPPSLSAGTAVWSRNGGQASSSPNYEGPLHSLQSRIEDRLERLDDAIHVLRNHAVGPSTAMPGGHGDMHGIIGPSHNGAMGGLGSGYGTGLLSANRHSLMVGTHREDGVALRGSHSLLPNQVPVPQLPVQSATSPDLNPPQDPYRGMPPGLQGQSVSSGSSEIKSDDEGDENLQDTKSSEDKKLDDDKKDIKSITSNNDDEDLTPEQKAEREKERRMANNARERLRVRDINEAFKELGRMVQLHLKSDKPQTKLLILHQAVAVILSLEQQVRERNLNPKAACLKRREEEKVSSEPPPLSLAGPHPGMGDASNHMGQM

[4] = Inhibition of Wnt reporter activity in human HeLa cells by cell based assay

## COc1cc(OC)cc(N2CC(=O)N(CCCOC(C)C)CC(=O)N(C(C)c3ccc(O)cc3)CC(=O)N(C(C)c3ccc(O)cc3)CC(=O)N[C@H](C)C(=O)N(CCc3ccccc3Oc3ccccc3)CC2=O)c1 (stereo not given in full)
[1]
  IC50: 0.2 µM
[2]
  IC50: 0.8 µM

## CCOC(=O)C[C@@H](NC(=O)[C@@H](Cc1ccc2ccccc2c1)NC(=O)Cc1cc2cc(Cl)ccc2[nH]1)C(=O)N[C@H](CC(=O)OCC)C(=O)OC
[3]
  IC50: 29 µM

## CCc1ccc(OCc2nnc(SC3CCCC3=O)n2C(C)c2ccccc2)cc1 (stereo not given)
TCF4-CTNNB1 complex
  IC50: 24 µM

## CC(C)C[C@@H]1NC(=O)[C@H](CC(C)C)NC(=O)[C@H](CO)NC(=O)[C@H](CC(=O)O)NC(=O)[C@@H]2CCCN2C(=O)[C@@H]2CCCN2C(=O)[C@H](C(C)C)NC(=O)[C@H](CC(=O)O)NC(=O)[C@H](CC(N)=O)NC(=O)[C@H](CCCNC(=N)N)NC(=O)[C@@H]2CS/C=C/CCSC[C@H](NC1=O)C(=O)N[C@@H](Cc1ccccc1)C(=O)NCCC(=O)NCCC(=O)N[C@@H](C(C)C)C(=O)N2 (cyclo(CF[βAla][βAla]VCRNDVPPDSLL); linker 1-6 via X1)
[4]
  IC50: 8 µM
